This note sets out measurements from patent US5541290A, “Optically pure calpain inhibitor compounds” (priority 1993, dated 1996).

Test [1] deals with T1, Calpain I (porcine erythrocytes) (Sus scrofa, UniProt P35750).
T1 construct: Calpain I (porcine erythrocytes, Nacalai Tesque, Kyoto, Japan); purchased Nacalai Tesque, Kyoto, Japan; host or cells: porcine erythrocytes (natural tissue source)
T1 sequence (P35750 1-714): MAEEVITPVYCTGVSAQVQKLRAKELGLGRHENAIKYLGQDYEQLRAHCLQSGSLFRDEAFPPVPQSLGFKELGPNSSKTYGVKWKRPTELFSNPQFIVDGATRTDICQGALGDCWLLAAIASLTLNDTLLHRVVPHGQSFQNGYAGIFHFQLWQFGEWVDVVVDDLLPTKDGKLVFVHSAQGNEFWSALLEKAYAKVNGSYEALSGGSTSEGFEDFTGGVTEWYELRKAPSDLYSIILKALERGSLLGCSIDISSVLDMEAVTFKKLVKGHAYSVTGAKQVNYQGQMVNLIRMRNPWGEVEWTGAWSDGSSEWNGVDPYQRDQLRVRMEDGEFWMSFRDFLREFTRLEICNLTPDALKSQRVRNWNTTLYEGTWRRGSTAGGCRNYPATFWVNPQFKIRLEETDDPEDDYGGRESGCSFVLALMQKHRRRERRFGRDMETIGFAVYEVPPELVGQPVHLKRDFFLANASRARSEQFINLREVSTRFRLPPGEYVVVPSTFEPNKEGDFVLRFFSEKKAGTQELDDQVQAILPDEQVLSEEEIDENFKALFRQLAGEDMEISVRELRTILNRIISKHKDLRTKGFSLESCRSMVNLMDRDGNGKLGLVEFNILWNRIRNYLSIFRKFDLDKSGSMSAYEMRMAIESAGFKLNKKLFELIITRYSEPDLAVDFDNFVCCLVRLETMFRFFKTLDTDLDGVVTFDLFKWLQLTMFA
T1 sequence (P04574 1-266 partner): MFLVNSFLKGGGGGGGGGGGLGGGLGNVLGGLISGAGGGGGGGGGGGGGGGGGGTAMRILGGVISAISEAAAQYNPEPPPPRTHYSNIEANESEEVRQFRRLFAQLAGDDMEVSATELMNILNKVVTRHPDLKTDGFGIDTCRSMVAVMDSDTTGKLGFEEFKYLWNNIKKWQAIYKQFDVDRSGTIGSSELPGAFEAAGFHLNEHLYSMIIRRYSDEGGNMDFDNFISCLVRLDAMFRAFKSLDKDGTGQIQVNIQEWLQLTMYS
In words: Calpain assay, continuous spectrofluorometric assay with SLY-MCA. The following applies: SLY-MCA substrate, 25° C., pH 7.5, competitive inhibition fit, read-out: Ki, pCal I. It is filed as biochemical. The method, then: Calpain activity was monitored using a continuous spectrofluorometric assay with succinyl-Leucyl-Tyrosyl-4-methylcoumaryl-γ-amide (SLY-MCA); Sasaki, T.; Kikuchi, T.; Yumotogo, N.; Yoshimura, N. and Murachi, T. J. Biol. Chem. 1984, 259. 12489-12494) at 25° C. using a Hitachi F4500 fluorescence spectrophotometer with a temperature controlled cuvette holder. The substrate solution was composed of SLY-MCA (2-0.2 mM) in 50 mM MOPS, pH 7.5, 5 mM CaCl2, 5 mM β-mercaptoethanol and 1% DMSO. Solutions of the inhibitors (100-500 nM) were prepared in the same buffer mixture as substrate. Calpain I (porcine erythrocytes, Nacalai Tesque, Kyoto, Japan) was diluted to 180 ug/mL in 20 mM HEPES, pH 7.5, 2 mM EDTA, 2 mM EGTA and 5 mM DTT. The substrate solution (0.9 mL) was placed in a 1 cm cuvette and to this was added either the inhibitor solution (0.05 mL) or the buffer (0.05 mL) as a control. The reaction was initiated by addition of the calpain I solution (0.05 mL) and the increase in fluorescence (excitation at 380 nm; emission at 460 nm) was monitored for 3 to 10 min. The initial velocities were then used to obtain the values of Vmax, Km and Ki by an iterative least squares fit of the data to the following equation for competitive inhibition according to the method of W. W. Cleland, Biochim. Biophys. Acta 67: 173 (1963).
V={Vmax ·[SLY-MCA]}/{(1+Inh]/Kl)·Km+[SLY-MCA]}

For test [2], the target named is T1, Calpain I (porcine erythrocytes). The description is as above. The class given is biochemical.

Where a name gives a salt, the structure may show the parent alone.

Broadly, the Ki is a measure of affinity in units of concentration, obtained from inhibition or displacement. With `CCNC(=O)C(=O)C(CC)NC(=O)C(CC(C)C)NC(=O)OC(C)(C)C` [Boc-L-Leu-L-Abu-CONH-Et], the Ki in test [1] worked out at 170 ± 15 nM.
One may read the IC50 as the point on the concentration scale where inhibition reaches its midpoint. Read a high IC50 as weaker potency. Regarding `CCNC(=O)C(=O)C(Cc1ccccc1)NC(=O)C(CC(C)C)NC(=O)OCc1ccccc1` [Cbz-L-Leu-D-Phe-CONH-Et], the IC50 in test [2] was more than 1500 nM.
Turning to `CCC(NC(=O)C(CC(C)C)NC(=O)OCc1ccccc1)C(=O)C(=O)NCCS(=O)(=O)CC` [Cbz-L-Leu-L-Abu-C(O)-NH-(CH2)2 -SO2 -ET, Cbz-L-Leu-L-Abu-C(O)--NH--(CH2)2 --SO2 --Et], the inhibition constant (Ki) in test [1] was determined as 129 ± 15 nM.
With `CC(C)C[C@H](NC(=O)OCc1ccccc1)C(=O)N[C@@H](Cc1ccccc1)C(=O)C(=O)N[C@@H](C)C(=O)O` [Cbz-L-Leu-L-Phe-C(O)-L-Ala-OH], in test [1], the Ki came to 718 ± 84 nM.
On to `COC(=O)C(C)NC(=O)C(=O)C(Cc1ccccc1)NC(=O)C(CC(C)C)NC(=O)OCc1ccccc1` [Cbz-L-Leu-L-Phe-C(O)-L-Ala-OMe], for which, in test [1], the inhibitory constant (Ki) turned out to be 92 ± 6 nM.
In the case of `CCC(NC(=O)C(=O)C(Cc1ccccc1)NC(=O)C(CC(C)C)NC(=O)OCc1ccccc1)C(=O)OC` [Cbz-L-Leu-L-Phe-C(O)-L-α-Abu-OMe], the Ki in test [1] came out at 141 ± 22 nM.
On the same count and under the same terms, for `COC(=O)[C@H](Cc1ccc(OC(C)(C)C)cc1)NC(=O)C(=O)C(Cc1ccccc1)NC(=O)[C@H](CC(C)C)NC(=O)OCc1ccccc1` (stereo partly drawn) [Cbz-L-Leu-L-Phe-C(O)-Tyr(O-t-butyl)-OMe] the value was 273 ± 17 nM; for `CCCC(NC(=O)C(CC(C)C)NC(=O)C(N)Cc1ccccc1)C(=O)C(=O)NCC` [D-Phe-L-Leu-L-Norvaline-CONH-Et.HCl, D-Phe-L-Leu-L-Norvaline-CONH-Et·HCl], 244 ± 11 nM; for `CCNC(=O)C(=O)C(CC)NC(=O)C(CC(C)C)NC(=O)N(C)C` [Dimethylurea-L-Leu-L-Abu-CONH-Et], 332 ± 29 nM.
Still for that read-out and setting: for `CCCC(NC(=O)C(CC(C)C)NC(=O)C(N)Cc1ccccc1)C(=O)C(=O)NCC` [L-Phe-L-Leu-L-Norvaline-CONH-Et.HCl, L-Phe-L-Leu-L-Norvaline-CONH-Et·HCl] the value was 116 ± 5 nM; for `CCNC(=O)C(=O)C(CC)NC(=O)C(CC(C)C)NC(=O)N1CCOCC1` [Morpholinourea-L-Leu-L-Abu-CONH-Et], 199 ± 16 nM; for Boc-D-Phe-L-Leu-L-Norvaline-CONH-Et, 93 ± 4 nM.
Regarding Boc-L-Phe-L-Leu-L-Norvaline-CONH-Et, in test [1], the Ki stood at 61 ± 2 nM.
Take Cbz-L-Leu-L-Abu-CONH-Et: in test [1], the Ki was 77 ± 10 nM.
Same read-out and setting: under Cbz-L-Leu-L-Norvaline-CONH-Et stands 78 nM; under Cbz-L-Leu-L-Phe-C(O)-L-Norleucine-OMe, 76.6 ± 5.2 nM.
Same read-out and setting: under Cbz-L-Leu-L-Phe-C(O)-Phe-OMe stands 31 ± 12 nM; under Cbz-L-Leu-L-Phenylalanine-CONH-Et, 89 nM.
